In US10051857B2, “Formulation component” (SYNGENTA LIMITED, priority 2011, dated 2018):

Columns and labels:
Format in all cases: in vivo
[1] = tested on: Abutilon theophrasti (ABUTH); experiment: Glasshouse adjuvant test with nicosulfuron (Example 2); conditions: nicosulfuron 30 or 60 g/ha, adjuvant 0.2% v/v, 200 l/ha; leaf area killed; mean over two rates, three replicates, 7, 14 and 21 days
Experimental: (§1) Compound No. 2 (see Example 1 and Table 1 above) was tested in a glasshouse against four weed species in combination with the herbicide nicosulfuron. An agrochemical composition was prepared containing 0.2% v/v of the adjuvant in a track sprayer and was applied at a volume of 200 liters per hectare. Nicosulfuron was applied at either 30 or 60 grams of pesticide per hectare on weeds which had been grown to the 1.3 or 1.4 leaf stage. The weed species were Chenopodium album (CHEAL), Abutilon theophrasti (ABUTH), […] (BRAPP), and Digitaria sanguinalis (DIGSA).
(§2) Each spray test was replicated three times. The efficacy of the herbicide was assessed visually and expressed as a percentage of the leaf area killed. Samples were assessed at time periods of 7, 14 and 21 days. following application. The results shown in Table 2 below are mean averages over the two rates of nicosulfuron, three replicates and the three assessment timings.

[2] = tested on: Brassica perenni (BRAPP); experiment: as above; conditions: nicosulfuron 30 or 60 g/ha, adjuvant 0.2% v/v, 200 l/ha; leaf area killed; mean over two rates, three replicates, 7, 14 and 21 days
Experimental: as §1, §2

[3] = tested on: Chenopodium album (CHEAL); experiment: as above; conditions: nicosulfuron 30 or 60 g/ha, adjuvant 0.2% v/v, 200 l/ha; leaf area killed; mean over two rates, three replicates, 7, 14 and 21 days
Experimental: as §1, §2

[4] = tested on: Digitaria sanguinalis (DIGSA); experiment: as above; conditions: nicosulfuron 30 or 60 g/ha, adjuvant 0.2% v/v, 200 l/ha; leaf area killed; mean over two rates, three replicates, 7, 14 and 21 days
Experimental: as §1, §2

[5] = tested on: four weed species (CHEAL, ABUTH, BRAPP, DIGSA); experiment: Glasshouse adjuvant test with nicosulfuron (Example 2), mean of species
Experimental: as §1, §2

[6] = tested on: Abutilon theophrasti (ABUTH); experiment: Glasshouse adjuvant test with fomesafen (Example 3); conditions: fomesafen 60 or 120 g/ha, adjuvant 0.2% v/v or none, 200 l/ha; leaf area killed; mean over two rates, six replicates, 7 and 14 days
Experimental: (§3) Compound No. 2 was tested in a glasshouse against four weed species in combination with the herbicide fomesafen. An agrochemical composition was prepared containing 0.2% v/v of the adjuvant in a track sprayer and was applied at a volume of 200 liters per hectare. Fomesafen was applied at either 60 or 120 grams of pesticide per hectare on weeds which had been grown to the 1.3 or 1.4 leaf stage. The weed species were Chenopodium album (CHEAL), Abutilon theophrasti (ABUTH), Setaria viridis (SETVI), and Xanthium strumarium (XANST).
(§4) Each spray test was replicated six times. The efficacy of the herbicide was assessed visually and expressed as a percentage of the leaf area killed. Samples were assessed at time periods of 7 and 14 days following application. The results shown in Table 3 below are mean averages over the two rates of fomesafen, six replicates and the two assessment timings, and are compared to the efficacy of fomesafen in the absence of adjuvant.

[7] = tested on: Chenopodium album (CHEAL); experiment: as above; conditions: fomesafen 60 or 120 g/ha, adjuvant 0.2% v/v or none, 200 l/ha; leaf area killed; mean over two rates, six replicates, 7 and 14 days
Experimental: as §3, §4

[8] = tested on: Setaria viridis (SETVI); experiment: as above; conditions: fomesafen 60 or 120 g/ha, adjuvant 0.2% v/v or none, 200 l/ha; leaf area killed; mean over two rates, six replicates, 7 and 14 days
Experimental: as §3, §4

[9] = tested on: Xanthium strumarium (XANST); experiment: as above; conditions: fomesafen 60 or 120 g/ha, adjuvant 0.2% v/v or none, 200 l/ha; leaf area killed; mean over two rates, six replicates, 7 and 14 days
Experimental: as §3, §4

[10] = tested on: four weed species (ABUTH, CHEAL, SETVI, XANST); experiment: Glasshouse adjuvant test with fomesafen (Example 3), mean across species; conditions: fomesafen 60 or 120 g/ha, adjuvant 0.2% v/v or none
Experimental: as §3, §4

[11] = tested on: Abutilon theophrasti (ABUTH); experiment: Glasshouse adjuvant test with mesotrione (Example 4); conditions: mesotrione 60 or 120 g/ha, adjuvant 0.2% v/v, 200 l/ha; leaf area killed; mean over two rates, six replicates, 6, 14 and 21 days
Experimental: (§5) Compound No. 2 was tested in a glasshouse against four weed species in combination with the herbicide mesotrione. An agrochemical composition was prepared containing 0.2% v/v of the adjuvant in a track sprayer and was applied at a volume of 200 liters per hectare. Mesotrione was applied at either 60 or 120 grams of pesticide per hectare on weeds which had been grown to the 1.3 or 1.4 leaf stage. The weed species were Amaranthus retroflexus (AMARE), Abutilon theophrasti (ABUTH), Brachiaria platyphylla (BRAPP), and Digitaria sanguinalis (DIGSA).
(§6) Each spray test was replicated six times. The efficacy of the herbicide was assessed visually and expressed as a percentage of the leaf area killed. Samples were assessed at time periods of 6, 14 and 21 days following application. The results shown in Table 4 below are mean averages over the two rates of mesotrione, six replicates and the three assessment timings. The results are compared to those obtained for mesotrione in combination with the commercially available tank mix adjuvant Turbocharge® D (Syngenta Crop Protection Canada, Inc.).

[12] = tested on: Amaranthus retroflexus (AMARE); experiment: as above; conditions: mesotrione 60 or 120 g/ha, adjuvant 0.2% v/v, 200 l/ha; leaf area killed; mean over two rates, six replicates, 6, 14 and 21 days
Experimental: as §5, §6

[13] = tested on: Brachiaria platyphylla (BRAPP); experiment: as above; conditions: mesotrione 60 or 120 g/ha, adjuvant 0.2% v/v, 200 l/ha; leaf area killed; mean over two rates, six replicates, 6, 14 and 21 days
Experimental: as §5, §6

[14] = tested on: Digitaria sanguinalis (DIGSA); experiment: as above; conditions: mesotrione 60 or 120 g/ha, adjuvant 0.2% v/v, 200 l/ha; leaf area killed; mean over two rates, six replicates, 6, 14 and 21 days
Experimental: as §5, §6

[15] = tested on: four weed species (AMARE, ABUTH, BRAPP, DIGSA); experiment: Glasshouse adjuvant test with mesotrione (Example 4), mean across species; conditions: mesotrione 60 or 120 g/ha, adjuvant 0.2% v/v
Experimental: as §5, §6

Q: How did the “Mean percentage kill ABUTH” value [1] turn out when CCCCCCCCCCCCc1ccc(C(=O)NCCOCCOCCOCCOCCOCCOCCOCCO)cc1 [Compound 2, 4-DODECYL-N-[2-(2-{2-[2-(2-{2-[2-(2-HYDROXY-ETHOXY)-ETHOXY]-ETHOXY}-ETHOXY)-ETHOXY]-ETHOXY}-ETHOXY)-ETHYL]-BENZAMIDE] was run?
A: 47.1%

Q: What about the “Mean percentage kill BRAPP” value [2] of the same molecule?
A: 86.4%

Q: And the “Mean percentage kill CHEAL” value [3]?
A: 80%

Q: What about the “Mean percentage kill DIGSA” value [4] of the same molecule?
A: 83.1%

Q: What about the “Mean percentage kill, Mean (g/ha)” value ([5]; nicosulfuron 30 or 60 g/ha, adjuvant 0.2% v/v, mean of the four weed species) of the same molecule?
A: 73.9%

Q: What about the “weed control compared to Turbocharge D” value ([5]; nicosulfuron formulation with adjuvant, in each case (all four weed species)) of the same molecule?
A: superior weed control

Q: What about the “Mean percentage kill ABUTH” value [6] of the same molecule?
A: 90%

Q: And the “Mean percentage kill CHEAL” value [7]?
A: 34.1%

Q: What about the “Mean percentage kill SETVI” value [8] of the same molecule?
A: 41.7%

Q: What about the “Mean percentage kill XANST” value [9] of the same molecule?
A: 68.8%

Q: What about the “Mean percentage kill, Mean across species” value [10] of the same molecule?
A: 58.6%

Q: What about the “Mean percentage kill ABUTH” value [11] of the same molecule?
A: 73.3%

Q: And the “Mean percentage kill AMARE” value [12]?
A: 63.5%

Q: And the “Mean percentage kill BRAPP” value [13]?
A: 68.2%

Q: And the “Mean percentage kill DIGSA” value [14]?
A: 83.4%

Q: And the “Mean percentage kill, Mean across species” value [15]?
A: 72.1%
